Species on record: Rattus norvegicus
Experiment: Open TG-GATES - Regimen: Single
Assay type: toxicity, organism-based, Sprague-Dawley
Set-up: regimen Single, gender Male, age 6 weeks
Conditions: in vivo, iv, 10 mg/kg, route intravenous injection, dose level High; for KIDNEY_L / KIDNEY_R / KIDNEY_TOTAL: tissue Kidney; for LIVER: tissue Liver; for ALP / ALT / AST / CRE / DBIL / GLC / K / LDH / Na / RALB / TBIL / TC / TG / TP / gamma-GTP: tissue Plasma

COc1cccc2c1C(=O)c1c(O)c3c(c(O)c1C2=O)C[C@@](O)(C(=O)CO)C[C@@H]3O[C@H]1C[C@H](N)[C@H](O)[C@H](C)O1 [DOXORUBICIN]
Eos (3 h, tissue Blood): 0.6%
Fbg (3 h, tissue Blood): 275.8 mg/dL
Ht (3 h, tissue Blood): 37.5%
Lym (3 h, tissue Blood): 60.4%
MCH (3 h, tissue Blood): 21.8 pg
MCHC (3 h, tissue Blood): 34.9%
MCV (3 h, tissue Blood): 62.3 fL
Mono (3 h, tissue Blood): 8.8%
Neu (3 h, tissue Blood): 27.4%
PT (3 h, tissue Blood): 16.5 s
Plat (3 h, tissue Blood): 121.7 x10_4/uL
RBC (3 h, tissue Blood): 603 x10_4/ul
Ret (3 h, tissue Blood): 6.2%
KIDNEY_L (3 h): 0.9 g
KIDNEY_R (3 h): 0.9 g
KIDNEY_TOTAL (3 h): 1.9 g
LIVER (3 h): 9.3 g
ALP (3 h): 1462.4 IU/L
ALT (3 h): 43 IU/L
AST (3 h): 86.6 IU/L
CRE (3 h): 0.1 mg/dL
DBIL (3 h): 0 mg/dL
GLC (3 h): 171.4 mg/dL
K (3 h): 4.6 meq/L
LDH (3 h): 187.2 IU/L
Na (3 h): 141.4 meq/L
RALB (3 h): 2.9 g/dL
TBIL (3 h): 0.008 mg/dL
TC (3 h): 75.4 mg/dL
TG (3 h): 140 mg/dL
TP (3 h): 5.1 g/dL
gamma-GTP (3 h): 1.6 IU/L
TERMINAL_BW (6 h): 205.6 g
Bas (6 h, tissue Blood): 0%
Eos (6 h, tissue Blood): 0.2%
Fbg (6 h, tissue Blood): 275.8 mg/dL
Ht (6 h, tissue Blood): 38%
Lym (6 h, tissue Blood): 64%
MCH (6 h, tissue Blood): 21.6 pg
MCHC (6 h, tissue Blood): 34%
MCV (6 h, tissue Blood): 63.4 fL
Mono (6 h, tissue Blood): 6.4%
Neu (6 h, tissue Blood): 26.4%
PT (6 h, tissue Blood): 16.2 s
Plat (6 h, tissue Blood): 118.6 x10_4/uL
RBC (6 h, tissue Blood): 599 x10_4/ul
Ret (6 h, tissue Blood): 6.9%
KIDNEY_L (6 h): 0.9 g
KIDNEY_R (6 h): 0.9 g
KIDNEY_TOTAL (6 h): 1.8 g
LIVER (6 h): 8.7 g
ALP (6 h): 1468.4 IU/L
AST (6 h): 86.4 IU/L
CRE (6 h): 0.2 mg/dL
DBIL (6 h): 0 mg/dL
GLC (6 h): 190.8 mg/dL
K (6 h): 4 meq/L
LDH (6 h): 180 IU/L
Na (6 h): 141 meq/L
RALB (6 h): 2.9 g/dL
TBIL (6 h): 0.036 mg/dL
TC (6 h): 69.4 mg/dL
TG (6 h): 54.4 mg/dL
TP (6 h): 5.1 g/dL
gamma-GTP (6 h): 1.6 IU/L
TERMINAL_BW (9 h): 206.9 g
Bas (9 h, tissue Blood): 0%
Eos (9 h, tissue Blood): 0.4%
Fbg (9 h, tissue Blood): 279.2 mg/dL
Hb (9 h, tissue Blood): 13 g/dL
Ht (9 h, tissue Blood): 38.2%
Lym (9 h, tissue Blood): 56.2%
MCH (9 h, tissue Blood): 21.3 pg
MCHC (9 h, tissue Blood): 34.1%
MCV (9 h, tissue Blood): 62.5 fL
Mono (9 h, tissue Blood): 5.6%
Neu (9 h, tissue Blood): 35.4%
PT (9 h, tissue Blood): 15.9 s
Plat (9 h, tissue Blood): 118.9 x10_4/uL
RBC (9 h, tissue Blood): 611.6 x10_4/ul
Ret (9 h, tissue Blood): 6.1%
KIDNEY_L (9 h): 0.9 g
KIDNEY_R (9 h): 0.9 g
KIDNEY_TOTAL (9 h): 1.9 g
LIVER (9 h): 8.2 g
ALP (9 h): 1273.6 IU/L
AST (9 h): 84.2 IU/L
CRE (9 h): 0.1 mg/dL
DBIL (9 h): 0.002 mg/dL
GLC (9 h): 186.2 mg/dL
K (9 h): 4.1 meq/L
Na (9 h): 139.6 meq/L
RALB (9 h): 3 g/dL
TBIL (9 h): 0.036 mg/dL
TC (9 h): 68.4 mg/dL
TG (9 h): 56.8 mg/dL
TP (9 h): 5.2 g/dL
gamma-GTP (9 h): 1.2 IU/L
TERMINAL_BW (24 h): 206.3 g
Bas (24 h, tissue Blood): 0%
Eos (24 h, tissue Blood): 0.8%
Fbg (24 h, tissue Blood): 323 mg/dL
Ht (24 h, tissue Blood): 37.9%
Lym (24 h, tissue Blood): 74.2%
MCH (24 h, tissue Blood): 22.1 pg
MCHC (24 h, tissue Blood): 35.9%
MCV (24 h, tissue Blood): 61.6 fL
Mono (24 h, tissue Blood): 3%
Neu (24 h, tissue Blood): 20.8%
PT (24 h, tissue Blood): 15.9 s
Plat (24 h, tissue Blood): 131.1 x10_4/uL
RBC (24 h, tissue Blood): 615.6 x10_4/ul
Ret (24 h, tissue Blood): 3.2%
KIDNEY_L (24 h): 0.9 g
KIDNEY_R (24 h): 0.9 g
KIDNEY_TOTAL (24 h): 1.8 g
LIVER (24 h): 9.1 g
ALP (24 h): 1298.4 IU/L
ALT (24 h): 28 IU/L
CRE (24 h): 0.2 mg/dL
DBIL (24 h): 0 mg/dL
GLC (24 h): 208.8 mg/dL
K (24 h): 4.9 meq/L
LDH (24 h): 129.2 IU/L
Na (24 h): 141.2 meq/L
RALB (24 h): 2.9 g/dL
TBIL (24 h): 0.014 mg/dL
TC (24 h): 82.4 mg/dL
TG (24 h): 60 mg/dL
TP (24 h): 5.2 g/dL
gamma-GTP (24 h): 1.4 IU/L
